Reference: patent publication US10744122B2, “Transdermal therapeutic system containing valentonin and use thereof as a medicament” (Soeur Josefa Menendez, priority 2015, dated 2020)
Like-named read-outs stand apart in the source and are kept apart here. One block for each compound: values may come before it.

How the values were obtained:
[1] = Extrapolation to humans of the PK parameter values observed in dogs; type: in vivo; settings: human, for a body weight of 64 kg in humans, extrapolated from dogs, read-out: Vdss
Source text: As the pharmacokinetic profiles, i.e., the pharmacokinetic parameter values, are identical in humans and dogs, just as in all […] animals, it is possible to extrapolate to humans the PK parameter values observed in dogs.

[2] = Stability in acidic gastric medium; type: physicochemical
[3] = cited from earlier work
[4] = Stability of melatonin in frozen human plasma during freeze-thaw cycles (HPLC-MS/MS); type: in vitro ADME; settings: human plasma samples stored at about −20° C.
Protocol: Between each cycle, the samples will be maintained under storage temperature conditions (about −20° C.) identical to those used for normal analysis of the samples.

[5] = Stability of the plasma extract in the injection solvent at about +4° C.; type: physicochemical, human; settings: for Deviation T0 + 24 h/T0: stored on an autosampler
Protocol: The plasma extracts will be analyzed repeatedly during the validation period in order to check for possible degradation of the compounds during storage in the solvent at about +4° C. The evaluation of stability is based on the back-calculated concentrations, which should be within ±15% (except for LOQ±20%), and an acceptable chromatographic peak shape.

Structure (SMILES): COc1ccc2[nH]c3c(c2c1)CCN=C3C [6-Methoxyharmalan, 6-methoxy-1-methyl-3,4-dihydro-β-carboline]
Vd ([1]; plasma, intravenous): 960 L

Structure (SMILES): C=C1c2[nH]c3ccc(OC)cc3c2CCN1C(C)=O [Valentonin, 2-acetyl-6-methoxy-1-methylene-3,4-dihydro-β-carboline]
Vd ([1]; in vivo): 320 L
Stability in acidic gastric medium [2]: completely hydrolyzed in acidic gastric medium
Stability in acidic gastric medium ([2]; listed as VLT): completely degraded in acidic gastric medium

Effect of freeze-thaw cycles on stability [4]: no effect on the stability
Deviation T0 + 24 h/T0 ([5]; 2 pg/ml): 1.65%
Deviation T0 + 24 h/T0 ([5]; 200 pg/ml): 3.33%
Time sample extracts were stable in the injection solvent ([5]; injection vials stored at about +4° C., after the first injection): at least 24 hours
Structure (SMILES): COc1ccc2[nH]cc(CCNC(C)=O)c2c1 [melatonin]
Maximum plasma concentrations observed from 1 a.m. onwards, mean value ([3]; 12 older subjects): 45.6 pg/mL
Maximum plasma concentrations observed from 1 a.m. onwards, mean value ([3]; 12 young subjects): 54.5 pg/mL
